Values of other authors as cited in patent US12472143B2, “Blend compositions for oral administration as a rapidly dissolving powder and/or suspension” (MARENDA PHARMACEUTICALS LLC, priority 2017, dated 2025).

## CC(C)Cc1ccc(C(C)C(=O)O)cc1 (stereo not shown) [Ibuprofen]
  solubility in water: sparingly soluble
